# From PMC6370589 (ChemMedChem, 2018)
# Entries after “also recorded” stand apart in the source; their conditions may differ.
# Key:
# [1] = test system: Daoy cells; test: MTS cellular metabolic viability assay, Daoy; assay type: cell-based
# [2] = test system: phosphorylated CDK1 at Tyr15; test: pCDK1; assay type: cell-based; conditions: Daoy, 24 h; for change in pCDK1(Tyr15) level vs DMSO control: 220 nM, n=3; for pCDK1 ELISA dose-response: 1 μM to 62 nM, EC50 values not determinable
# [3] = target: recombinant PLK1 kinase (Homo sapiens, UniProt P53350); test: PLK1 recombinant kinase LANCE TR-FRET assay; assay type: biochemical
# Chain of recombinant PLK1 kinase (P53350 whole entry): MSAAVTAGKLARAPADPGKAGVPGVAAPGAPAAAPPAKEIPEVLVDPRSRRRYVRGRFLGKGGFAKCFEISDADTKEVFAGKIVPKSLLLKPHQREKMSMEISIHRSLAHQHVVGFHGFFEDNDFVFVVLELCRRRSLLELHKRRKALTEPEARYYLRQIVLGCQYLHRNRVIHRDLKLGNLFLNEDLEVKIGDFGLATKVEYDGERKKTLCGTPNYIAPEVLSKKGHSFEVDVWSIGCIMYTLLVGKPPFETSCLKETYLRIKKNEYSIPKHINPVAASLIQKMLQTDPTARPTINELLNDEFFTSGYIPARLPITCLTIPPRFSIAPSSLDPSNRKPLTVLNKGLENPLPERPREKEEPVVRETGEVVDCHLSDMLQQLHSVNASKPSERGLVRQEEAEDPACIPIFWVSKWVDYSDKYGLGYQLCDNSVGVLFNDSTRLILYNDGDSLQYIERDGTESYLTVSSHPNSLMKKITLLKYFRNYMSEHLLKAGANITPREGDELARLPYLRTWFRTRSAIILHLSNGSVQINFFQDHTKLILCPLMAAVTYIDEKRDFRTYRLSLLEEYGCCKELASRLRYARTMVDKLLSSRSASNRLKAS
# [4] = test system: Daoy cells; conditions: for concentration with appreciable cytotoxicity, not before 48 hours: from 48 h
# [5] = test system: phosphorylated CDK1 at Tyr15; conditions: read-out: pCDK1 ELISA EC50; Daoy; previously determined; cited from earlier work
# [6] = test system: WEE1; conditions: read-out: WEE1 IC50; radiolabeled ATP kinase assay; cited from earlier work
# [7] = target: Src family tyrosine kinase YES1; conditions: read-out: YES1 IC50; radiolabeled ATP kinase assay; cited from earlier work
# [8] = test system: 8 other kinases; conditions: 1.0 μM, profile of 223 kinases; cited from earlier work
# [9] = in vitro; conditions: human
# [10] = test system: advanced refractory solid tumors; conditions: Phase I, single agent; cited from earlier work
# [11] = test system: ONS-76 cells; test: MTS cellular metabolic viability assay, ONS-76; assay type: cell-based; conditions: ONS-76, 72 h
# [12] = target: recombinant WEE1 (Homo sapiens, UniProt P30291); test: WEE1 recombinant kinase TR-FRET; assay type: binding
# Chain of recombinant WEE1 (P30291 whole entry): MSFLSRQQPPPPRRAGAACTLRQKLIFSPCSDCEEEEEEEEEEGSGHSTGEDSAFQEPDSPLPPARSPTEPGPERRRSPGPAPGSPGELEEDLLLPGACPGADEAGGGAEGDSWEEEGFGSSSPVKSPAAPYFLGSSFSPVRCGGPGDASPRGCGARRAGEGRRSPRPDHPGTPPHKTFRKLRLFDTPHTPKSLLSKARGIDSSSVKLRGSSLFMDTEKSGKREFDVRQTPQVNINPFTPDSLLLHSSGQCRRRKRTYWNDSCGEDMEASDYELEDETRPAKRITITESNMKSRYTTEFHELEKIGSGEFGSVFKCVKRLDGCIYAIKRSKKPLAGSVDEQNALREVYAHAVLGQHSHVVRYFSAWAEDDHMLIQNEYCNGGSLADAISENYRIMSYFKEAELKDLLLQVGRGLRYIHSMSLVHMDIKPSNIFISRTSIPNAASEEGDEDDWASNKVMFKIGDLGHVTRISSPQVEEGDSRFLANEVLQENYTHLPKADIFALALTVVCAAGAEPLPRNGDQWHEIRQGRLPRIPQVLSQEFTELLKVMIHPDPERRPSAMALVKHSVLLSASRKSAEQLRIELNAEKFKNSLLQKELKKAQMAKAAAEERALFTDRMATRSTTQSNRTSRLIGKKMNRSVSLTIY
smiles,measurement,setting,value
"C=CCn1c(=O)c2cnc(Nc3ccc(N4CCN(C)CC4)cc3)nc2n1-c1cccc(C(C)(C)O)n1 [AZD1775, 2-allyl-1-(6-(2-hydroxypropan-2-yl)pyridin-2-yl)-6-((4-(4-methylpiperazin-1-yl)phenyl)amino)-1,2-dihydro-3H-pyrazolo[3,4-d]pyrimidin-3-one, reference compound]",EC50,"[1]; Homo sapiens, read-out: MTS EC50 used to set the concentration range, Daoy",150 nM
same,change in pCDK1(Tyr15) level vs DMSO control,[2],statistically significant decrease in pCDK1 levels
same,pCDK1 ELISA dose-response,[2],comparable effects on pCDK1 levels
same,IC50,[3],77.6 ± 9.3 nM
same,concentration with cytotoxic effects within 24 hours,[4]; 24 h,> 600 nM
same,concentration with cytotoxic effects after 72 hours,[4]; 72 h,> 75 nM
same,EC50,[5],220 nM
same,IC50,[6],5 nM
same,IC50,[7],14 nM
same,inhibition of 8 other kinases,[8],> 80%
same,EC50 at 72 h,[9]; Daoy cells,188 ± 26 nM
same,dose-limiting toxicities,[10],supraventricular tachyarrhythmia and myelosuppression
"C=CCn1c(=O)c2cnc(Nc3ccccc3)nc2n1-c1cccc(C(C)(C)O)n1 [Compound 24, 2-allyl-1-(6-(2-hydroxypropan-2-yl)pyridin-2-yl)-6-(phenylamino)-1,2-dihydro-3H-pyrazolo[3,4-d]pyrimidin-3-one]",change in pCDK1(Tyr15) level vs DMSO control,[2],significant increases in pCDK1 levels
"C=CCn1c(=O)c2cnc(Nc3cccc(N(C)C)c3)nc2n1-c1cccc(C(C)(C)O)n1 [Compound 25, 2-allyl-6-((3-(dimethylamino)phenyl)amino)-1-(6-(2-hydroxypropan-2-yl)pyridin-2-yl)-1,2-dihydro-3H-pyrazolo[3,4-d]pyrimidin-3-one]",change in pCDK1(Tyr15) level vs DMSO control,[2],significant increases in pCDK1 levels
"C=CCn1c(=O)c2cnc(Nc3ccc(CCN(C)C)cc3)nc2n1-c1cccc(C(C)(C)O)n1 [Compound 28, 2-allyl-6-((4-(2-(dimethylamino)ethyl)phenyl)amino)-1-(6-(2-hydroxypropan-2-yl)pyridin-2-yl)-1,2-dihydro-3H-pyrazolo[3,4-d]pyrimidin-3-one]",change in pCDK1(Tyr15) level vs DMSO control,[2],statistically significant decrease in pCDK1 levels
same,pCDK1 ELISA dose-response,[2],comparable effects on pCDK1 levels
same,IC50,[3],270 ± 29 nM
same,concentration with some cytotoxicity within 24 hours,[4]; 24 h,1.2 µM
same,EC50 at 72 h,[9],651 ± 16 nM
"C=CCn1c(=O)c2cnc(Nc3ccc(OCCN(C)C)cc3)nc2n1-c1cccc(C(C)(C)O)n1 [Compound 29, 2-allyl-6-((4-(2-(dimethylamino)ethoxy)phenyl)amino)-1-(6-(2-hydroxypropan-2-yl)pyridin-2-yl)-1,2-dihydro-3H-pyrazolo[3,4-d]pyrimidin-3-one]","MTS % effect (activity) at 600 nM, Daoy","[1]; 72 h, 600 nM",81%
same,change in pCDK1(Tyr15) level vs DMSO control,[2],statistically significant decrease in pCDK1 levels
same,pCDK1 ELISA dose-response,[2],comparable effects on pCDK1 levels
same,IC50,[3],161 ± 10 nM
same,CellTox Green dose-response / EC50 determination,"[4]; 72 h, up to 2400 nM",Sigmoidal dose-response curves were not obtained; also recorded: did not display sufficient cytotoxicity for EC50 determination
same,"concentration with appreciable cytotoxicity, not before 48 hours",[4],> 300 nM
"C=CCn1c(=O)c2cnc(Nc3ccc(N4CCN(C)CC4)cc3)nc2n1-c1cccc(C(C)(C)O)c1 [Compound 31, 2-allyl-1-(3-(2-hydroxypropan-2-yl)phenyl)-6-((4-(4-methylpiperazin-1-yl)phenyl)amino)-1,2-dihydro-3H-pyrazolo[3,4-d]pyrimidin-3-one]","MTS % effect at 1.16 μM, ONS-76",[11],57%
same,change in pCDK1(Tyr15) level vs DMSO control,[2],did not cause a significant reduction in pCDK1 levels
same,IC50,[3],394 ± 37 nM
same,"concentration with appreciable cytotoxicity, not before 48 hours",[4],> 300 nM
"C=C(C)c1cccc(-n2[nH]c(=O)c3cnc(Nc4ccc(N5CCN(C)CC5)cc4)nc32)n1 [Compound 34, 6-((4-(4-methylpiperazin-1-yl)phenyl)amino)-1-(6-(prop-1-en-2-yl)pyridin-2-yl)-1,2-dihydro-3H-pyrazolo[3,4-d]pyrimidin-3-one]",IC50,[12],190 ± 12 nM
